As a reminder, the logD is the decadic logarithm of the distribution of all forms, ionised or not, between an organic phase and buffer at a given pH. The low end stands for lower lipophilicity, the high end for higher lipophilicity.

A short description of data set [1]: method code SF-HPLC, from DOI: 10.1002/jps.2600830309, PMID: 8207673. Conditions: pH 7.5.

Compound `COc1cc(Br)cc(C(=O)NC[C@@H]2CCCN2CCF)c1OC` had a logD (pH 7.5) of 3.22.

In the case of `CCc1cc(Cl)c(O)c(C(=O)NC[C@@H]2CCCN2CCF)c1OC`, under “pH 7.5”, the logD stood at 4.71.

`CCOc1ccc(I)c(O)c1C(=O)NC[C@@H]1CCCN1CC` came in with a log distribution coefficient (logD) in data set [1] of 2.84.

`CCOc1c(OC)cc(I)c(O)c1C(=O)NC[C@@H]1CCCN1CC` gave a pH-dependent lipophilicity (logD) (pH 7.4) of 2.52.

Values taken from the SangsterLogP compilation.
